The results in this text go back to ChEMBL document CHEMBL4742400, “Protein kinase mkk4 inhibitors for promoting liver regeneration or reducing or preventing hepatocyte death” (2019).

Bounds are passed on as bounds.

For assay [1], the species on record is Homo sapiens. The assay is described as follows: Selectivity index, ratio of inhibition of full length human JNK1 (M1 to Q384 residues) expressed in mammalian expression system assessed as residual percent of control binding at 100 nM relative to control to inhibition of partial length human MKK4 (S84 to D399 residues) expressed in mammalian expression system assessed as residual percent of control binding at 100 nM relative to control.

The species entered for assay [2] is Homo sapiens. The assay is described as follows: Selectivity index, ratio of inhibition of full length human MKK7 (M1 to R419 residues) expressed in mammalian expression system assessed as residual percent of control binding at 100 nM relative to control to inhibition of partial length human MKK4 (S84 to D399 residues) expressed in mammalian expression system assessed as residual percent of control binding at 100 nM relative to control.

For assay [3], the species on record is Homo sapiens. The experiment in a line: Selectivity index, ratio of inhibition of B-raf (unknown origin) to inhibition of partial length human MKK4 (S84 to D399 residues) expressed in mammalian expression system assessed as residual percent of control binding at 100 nM relative to control.

For `CCCS(=O)(=O)Nc1ccc(F)c(C(=O)c2n[nH]c3ncc(-c4ccc(O)cc4)cc23)c1F`, the Selectivity ratio was above 30 in assay [1], above 30 in assay [2] and 10 in assay [3].

With `CCCS(=O)(=O)Nc1ccc(F)c(C(=O)c2n[nH]c3ncc(-c4ccccc4O)cc23)c1F`, the figures for the Selectivity ratio in assay [1], in assay [2] and in assay [3] were 3, 10 and 3, respectively.

With `CCCS(=O)(=O)Nc1ccc(F)c(C(=O)c2n[nH]c3ncc(-c4ccccc4OC)cc23)c1F`, the Selectivity ratio in assay [1] is 10; in assay [2], above 30; in assay [3], above 30.

For `CCCS(=O)(=O)Nc1ccc(F)c(C(=O)c2n[nH]c3ncc(-c4ccccc4)cc23)c1F`, the Selectivity ratio in assay [1] is 10; in assay [2], above 30; in assay [3], 10.

With `CCCS(=O)(=O)Nc1ccc(F)c(Cc2n[nH]c3ncc(-c4ccc(Cl)cc4)cc23)c1F`, the Selectivity ratio in assay [1], in assay [2] and in assay [3] was below 3 throughout.

As to `CCCS(=O)(=O)Nc1ccc(F)c(C(=O)c2n[nH]c3ncc(-c4ccc(S(=O)(=O)NC(C)=O)cc4)cc23)c1F`, the results for the Selectivity ratio in assay [1], in assay [2] and in assay [3] were above 30, above 30 and below 3, respectively.

For `CCCS(=O)(=O)Nc1ccc(F)c(C(=O)c2n[nH]c3ncc(-c4ccccc4Cl)cc23)c1F`, the Selectivity ratio came out at 10 in assay [1], 10 in assay [2] and 3 in assay [3].

Take `CCCS(=O)(=O)Nc1ccc(F)c(C(=O)c2n[nH]c3ncc(-c4ccc(F)cc4)cc23)c1F`: the Selectivity ratio in assay [1] is above 30; in assay [2], above 30; in assay [3], 10.

`CCCS(=O)(=O)Nc1ccc(F)c(C(=O)c2n[nH]c3ncc(-c4cccc(N)c4)cc23)c1F`: the Selectivity ratio in assay [1] was above 30; in assay [2], above 30; in assay [3] it was below 3.

With `CCCS(=O)(=O)Nc1ccc(F)c(C(=O)c2n[nH]c3ncc(-c4cccc(Cl)c4)cc23)c1F`, the Selectivity ratio in assay [1], in assay [2] and in assay [3] was below 3 each time.

For the compound `CCCS(=O)(=O)Nc1ccc(F)c(C(=O)c2n[nH]c3ncc(-c4cccc(C(F)(F)F)c4)cc23)c1F`, the Selectivity ratio in assay [1], in assay [2] and in assay [3] was below 3 throughout.

In the case of `CCCS(=O)(=O)Nc1ccc(F)c(C(=O)c2n[nH]c3ncc(-c4cccc(F)c4)cc23)c1F`, the Selectivity ratio in assay [1] is 10; in assay [2], 10; in assay [3] it was below 3.

Take `CCCS(=O)(=O)Nc1ccc(F)c(C(=O)c2n[nH]c3ncc(-c4ccc(-c5nnn[nH]5)cc4)cc23)c1F`: the values for the Selectivity ratio in assay [1], in assay [2] and in assay [3] were above 30, above 30 and 3, respectively.

In the case of `CCCS(=O)(=O)Nc1ccc(F)c(C(=O)c2n[nH]c3ncc(-c4ccc(C(=O)NCC(O)CO)cc4)cc23)c1F` (stereo unspecified), the Selectivity ratio in assay [1] was above 30; in assay [2] it was above 30; in assay [3] it was below 3.

As for `CCCS(=O)(=O)Nc1ccc(F)c(C(=O)c2n[nH]c3ncc(-c4ccc(C(=O)O)cc4)cc23)c1F`, the results for the Selectivity ratio in assay [1], in assay [2] and in assay [3] were above 30, above 30 and 10, respectively.

Regarding `CCCS(=O)(=O)Nc1ccc(F)c(NC(=O)c2n[nH]c3ncc(-c4ccc(Cl)cc4)cc23)c1F`, the Selectivity ratio in assay [1], in assay [2] and in assay [3] was below 3 each time.

Turning to `CCCS(=O)(=O)Nc1ccc(F)c(C(=O)c2n[nH]c3ncc(-c4cccc(C)c4)cc23)c1F`, the Selectivity ratio was 3 in assay [1], 3 in assay [2] and below 3 in assay [3].

In the case of `CCCS(=O)(=O)Nc1ccc(F)c(C(=O)c2n[nH]c3ncc(-c4ccc(C(C)C)cc4)cc23)c1F`, the Selectivity ratio in assay [1], in assay [2] and in assay [3] was 3 in each case.

Turning to `CCCS(=O)(=O)Nc1ccc(F)c(C(=O)c2n[nH]c3ncc(-c4ccc(C)c(C)c4)cc23)c1F`, the figures for the Selectivity ratio in assay [1], in assay [2] and in assay [3] were 3, 3 and below 3, respectively.

As to `CCCS(=O)(=O)Nc1ccc(F)c(C(=O)c2n[nH]c3ncc(-c4ccc(Cl)c(Cl)c4)cc23)c1F`, the results for the Selectivity ratio in assay [1], in assay [2] and in assay [3] were 10, below 3 and below 3, respectively.

In the case of `CCCS(=O)(=O)Nc1ccc(F)c(C(=O)c2n[nH]c3ncc(-c4ccc(S(N)(=O)=O)cc4)cc23)c1F`, the Selectivity ratio in assay [1] is above 30; in assay [2], above 30; in assay [3] it was 3.

With `CCCS(=O)(=O)Nc1ccc(F)c(C(=O)c2n[nH]c3ncc(-c4ccc(C)cc4)cc23)c1F`, the Selectivity ratio in assay [1] was 10; in assay [2], 10; in assay [3], below 3.

On to `CCCS(=O)(=O)Nc1ccc(F)c(C(=O)c2n[nH]c3ncc(-c4ccc(N(C)C)cc4)cc23)c1F`, for which the results for the Selectivity ratio in assay [1], in assay [2] and in assay [3] were above 30, above 30 and below 3, respectively.

Consider `CCCS(=O)(=O)Nc1ccc(F)c(S(=O)(=O)c2n[nH]c3ncc(-c4ccc(Cl)cc4)cc23)c1F`, for which the Selectivity ratio in assay [1], in assay [2] and in assay [3] was below 3 in each case.

With `CCCS(=O)(=O)Nc1ccc(F)c(C(=O)c2n[nH]c3ncc(-c4ccccc4N)cc23)c1F`, the Selectivity ratio in assay [1], in assay [2] and in assay [3] was 3 throughout.

On to `CCCS(=O)(=O)Nc1ccc(F)c(C(=O)c2n[nH]c3ncc(-c4ccc(Cl)c(C(F)(F)F)c4)cc23)c1F`, for which the results for the Selectivity ratio in assay [1], in assay [2] and in assay [3] were above 30, 3 and below 3, respectively.

Consider `CCCS(=O)(=O)Nc1ccc(F)c(C(=O)c2n[nH]c3ncc(-c4cccc(N(C)C)c4)cc23)c1F`, for which the values for the Selectivity ratio in assay [1], in assay [2] and in assay [3] were 3, 3 and below 3, respectively.

As to `CCCS(=O)(=O)Nc1ccc(F)c(C(=O)c2n[nH]c3ncc(-c4ccc(C(N)=O)cc4)cc23)c1F`, the Selectivity ratio in assay [1] was above 30; in assay [2], above 30; in assay [3], 3.

As for `CCCCS(=O)(=O)Nc1cccc(C(=O)c2n[nH]c3ncc(-c4ccc5c(c4)OCCO5)cc23)c1F`, the Selectivity ratio was below 3 in assay [1], 3 in assay [2] and 3 in assay [3].

For the compound `CCCS(=O)(=O)Nc1ccc(F)c(C(=O)c2n[nH]c3ncc(-c4ccc(N)cc4)cc23)c1F`, the Selectivity ratio in assay [1] was above 30; in assay [2] it was above 30; in assay [3], 10.

For the compound `CCCS(=O)(=O)Nc1ccc(F)c(C(=O)c2n[nH]c3ncc(-c4ccc(C(C)(C)C)cc4)cc23)c1F`, the Selectivity ratio in assay [1], in assay [2] and in assay [3] was below 3 each time.

Turning to `CCCS(=O)(=O)Nc1ccc(F)c(C(=O)c2n[nH]c3ncc(-c4cccc(OC)c4)cc23)c1F`, the Selectivity ratio in assay [1] turned out to be 10; in assay [2], 10; in assay [3], 3.

Take `CCCS(=O)(=O)Nc1ccc(F)c([S+]([O-])c2n[nH]c3ncc(-c4ccc(Cl)cc4)cc23)c1F` (stereo unspecified): the Selectivity ratio in assay [1], in assay [2] and in assay [3] was below 3 in each case.

Take `CCCS(=O)(=O)Nc1c(F)ccc(C(=O)c2n[nH]c3ncc(-c4ccc(C(=O)O)cc4)cc23)c1F`: the Selectivity ratio in assay [1], in assay [2] and in assay [3] was above 30 in each case.

On to `CCCS(=O)(=O)Nc1ccc(F)c(C(=O)c2n[nH]c3ncc(-c4ccc(S(=O)(=O)NCC(O)CO)cc4)cc23)c1F` (stereo unspecified), for which the Selectivity ratio in assay [1] is above 30; in assay [2] it was above 30; in assay [3], below 3.

On to `CCCS(=O)(=O)Nc1ccc(F)c(C(=O)c2n[nH]c3ncc(-c4ccc([N+](=O)[O-])cc4)cc23)c1F`, for which the Selectivity ratio in assay [1] worked out at 10; in assay [2], 10; in assay [3] it was 3.

With `CCCS(=O)(=O)Nc1ccc(F)c(C(=O)c2n[nH]c3ncc(-c4cc(Cl)cc(Cl)c4)cc23)c1F`, the Selectivity ratio in assay [1], in assay [2] and in assay [3] was below 3 throughout.

For `CCCS(=O)(=O)Nc1ccc(F)c(C(=O)c2n[nH]c3ncc(-c4ccccc4C)cc23)c1F`, the Selectivity ratio is 10 in assay [1], 10 in assay [2] and 3 in assay [3].

Consider `O=C(c1ccc(F)c(NS(=O)(=O)Cc2ccccc2)c1F)c1n[nH]c2ncc(-c3ccncc3)cc12`, for which the Selectivity ratio in assay [1], in assay [2] and in assay [3] was above 30 throughout.

For the compound `CCCS(=O)(=O)Nc1ccc(F)c(Sc2n[nH]c3ncc(-c4ccc(Cl)cc4)cc23)c1F`, the Selectivity ratio in assay [1], in assay [2] and in assay [3] was below 3 each time.

On to `CCCS(=O)(=O)Nc1ccc(F)c(C(=O)c2n[nH]c3ncc(-c4ccc(OC)cc4)cc23)c1F`, for which the values for the Selectivity ratio in assay [1], in assay [2] and in assay [3] were 10, 10 and below 3, respectively.

For `CCCS(=O)(=O)Nc1ccc(F)c(C(=O)c2n[nH]c3ncc(-c4ccc(Cl)cc4Cl)cc23)c1F`, the Selectivity ratio in assay [1], in assay [2] and in assay [3] was 3 each time.
